We go through 26 molecules from US10221167B2, “Hydroxyalkylamine- and hydroxycycloalkylamine-substituted diamine-arylsulfonamide compounds with selective activity in voltage-gated sodium channels” (Merck Sharp & Dohme Corp., priority 2015, dated 2019).

Some results are limits rather than exact numbers.

T2 sequence (Q14524 whole entry): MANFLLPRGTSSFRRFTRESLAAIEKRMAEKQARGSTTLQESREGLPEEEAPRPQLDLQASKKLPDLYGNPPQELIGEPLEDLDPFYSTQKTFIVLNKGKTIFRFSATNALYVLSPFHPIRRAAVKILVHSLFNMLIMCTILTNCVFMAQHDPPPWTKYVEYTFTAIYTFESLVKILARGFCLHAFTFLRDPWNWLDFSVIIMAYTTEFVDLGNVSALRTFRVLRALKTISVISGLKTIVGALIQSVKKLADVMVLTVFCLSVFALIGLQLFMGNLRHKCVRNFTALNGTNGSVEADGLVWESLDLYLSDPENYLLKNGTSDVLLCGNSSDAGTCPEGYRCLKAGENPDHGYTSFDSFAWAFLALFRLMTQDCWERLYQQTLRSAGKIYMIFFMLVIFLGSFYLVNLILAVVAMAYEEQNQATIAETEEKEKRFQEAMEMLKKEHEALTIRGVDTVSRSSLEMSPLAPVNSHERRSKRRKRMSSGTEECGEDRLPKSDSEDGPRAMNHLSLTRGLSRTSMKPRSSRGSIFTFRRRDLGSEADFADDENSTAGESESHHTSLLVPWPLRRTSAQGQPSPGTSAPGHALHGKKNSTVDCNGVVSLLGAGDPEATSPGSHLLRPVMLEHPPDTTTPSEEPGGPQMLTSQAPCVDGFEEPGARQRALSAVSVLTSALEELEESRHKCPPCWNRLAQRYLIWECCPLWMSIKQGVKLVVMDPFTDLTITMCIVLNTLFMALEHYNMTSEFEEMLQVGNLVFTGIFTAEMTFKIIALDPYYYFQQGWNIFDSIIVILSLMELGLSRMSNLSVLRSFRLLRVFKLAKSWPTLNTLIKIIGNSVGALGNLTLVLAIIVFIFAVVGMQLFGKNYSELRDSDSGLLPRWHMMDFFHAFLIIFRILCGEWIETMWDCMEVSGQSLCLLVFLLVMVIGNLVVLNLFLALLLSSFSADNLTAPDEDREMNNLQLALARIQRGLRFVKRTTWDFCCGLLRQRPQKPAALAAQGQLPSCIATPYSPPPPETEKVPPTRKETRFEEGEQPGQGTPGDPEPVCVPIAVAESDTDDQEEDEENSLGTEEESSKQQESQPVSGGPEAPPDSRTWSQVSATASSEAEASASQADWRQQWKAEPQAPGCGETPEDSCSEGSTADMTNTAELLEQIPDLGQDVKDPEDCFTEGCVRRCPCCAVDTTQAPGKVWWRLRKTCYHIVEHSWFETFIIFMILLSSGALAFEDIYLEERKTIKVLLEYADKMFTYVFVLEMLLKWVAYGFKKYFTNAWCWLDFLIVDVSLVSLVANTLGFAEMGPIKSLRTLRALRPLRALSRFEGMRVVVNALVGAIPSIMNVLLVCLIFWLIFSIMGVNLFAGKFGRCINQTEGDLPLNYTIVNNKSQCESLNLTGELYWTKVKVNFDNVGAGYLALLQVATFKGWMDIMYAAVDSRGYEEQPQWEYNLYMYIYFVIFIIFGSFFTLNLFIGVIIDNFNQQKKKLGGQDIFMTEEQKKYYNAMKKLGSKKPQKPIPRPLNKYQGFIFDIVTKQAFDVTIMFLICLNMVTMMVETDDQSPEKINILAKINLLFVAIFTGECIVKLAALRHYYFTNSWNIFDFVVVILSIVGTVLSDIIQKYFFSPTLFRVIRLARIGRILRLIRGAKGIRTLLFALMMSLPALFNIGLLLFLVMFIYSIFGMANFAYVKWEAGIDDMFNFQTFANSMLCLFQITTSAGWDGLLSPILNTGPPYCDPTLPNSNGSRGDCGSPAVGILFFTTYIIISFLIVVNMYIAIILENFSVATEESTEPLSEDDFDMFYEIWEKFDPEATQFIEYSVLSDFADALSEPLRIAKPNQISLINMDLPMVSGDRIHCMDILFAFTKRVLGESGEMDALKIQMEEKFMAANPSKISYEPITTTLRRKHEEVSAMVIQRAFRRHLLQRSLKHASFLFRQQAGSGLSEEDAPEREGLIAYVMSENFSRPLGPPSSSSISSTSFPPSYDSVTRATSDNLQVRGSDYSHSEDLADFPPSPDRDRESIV

The first test deals with T1, human Nav1.7 channels stably expressed in HEK 293 cells (Homo sapiens, UniProt Q15858).
T1 construct: expressed in transfected cells
T1 sequence (Q15858 whole entry): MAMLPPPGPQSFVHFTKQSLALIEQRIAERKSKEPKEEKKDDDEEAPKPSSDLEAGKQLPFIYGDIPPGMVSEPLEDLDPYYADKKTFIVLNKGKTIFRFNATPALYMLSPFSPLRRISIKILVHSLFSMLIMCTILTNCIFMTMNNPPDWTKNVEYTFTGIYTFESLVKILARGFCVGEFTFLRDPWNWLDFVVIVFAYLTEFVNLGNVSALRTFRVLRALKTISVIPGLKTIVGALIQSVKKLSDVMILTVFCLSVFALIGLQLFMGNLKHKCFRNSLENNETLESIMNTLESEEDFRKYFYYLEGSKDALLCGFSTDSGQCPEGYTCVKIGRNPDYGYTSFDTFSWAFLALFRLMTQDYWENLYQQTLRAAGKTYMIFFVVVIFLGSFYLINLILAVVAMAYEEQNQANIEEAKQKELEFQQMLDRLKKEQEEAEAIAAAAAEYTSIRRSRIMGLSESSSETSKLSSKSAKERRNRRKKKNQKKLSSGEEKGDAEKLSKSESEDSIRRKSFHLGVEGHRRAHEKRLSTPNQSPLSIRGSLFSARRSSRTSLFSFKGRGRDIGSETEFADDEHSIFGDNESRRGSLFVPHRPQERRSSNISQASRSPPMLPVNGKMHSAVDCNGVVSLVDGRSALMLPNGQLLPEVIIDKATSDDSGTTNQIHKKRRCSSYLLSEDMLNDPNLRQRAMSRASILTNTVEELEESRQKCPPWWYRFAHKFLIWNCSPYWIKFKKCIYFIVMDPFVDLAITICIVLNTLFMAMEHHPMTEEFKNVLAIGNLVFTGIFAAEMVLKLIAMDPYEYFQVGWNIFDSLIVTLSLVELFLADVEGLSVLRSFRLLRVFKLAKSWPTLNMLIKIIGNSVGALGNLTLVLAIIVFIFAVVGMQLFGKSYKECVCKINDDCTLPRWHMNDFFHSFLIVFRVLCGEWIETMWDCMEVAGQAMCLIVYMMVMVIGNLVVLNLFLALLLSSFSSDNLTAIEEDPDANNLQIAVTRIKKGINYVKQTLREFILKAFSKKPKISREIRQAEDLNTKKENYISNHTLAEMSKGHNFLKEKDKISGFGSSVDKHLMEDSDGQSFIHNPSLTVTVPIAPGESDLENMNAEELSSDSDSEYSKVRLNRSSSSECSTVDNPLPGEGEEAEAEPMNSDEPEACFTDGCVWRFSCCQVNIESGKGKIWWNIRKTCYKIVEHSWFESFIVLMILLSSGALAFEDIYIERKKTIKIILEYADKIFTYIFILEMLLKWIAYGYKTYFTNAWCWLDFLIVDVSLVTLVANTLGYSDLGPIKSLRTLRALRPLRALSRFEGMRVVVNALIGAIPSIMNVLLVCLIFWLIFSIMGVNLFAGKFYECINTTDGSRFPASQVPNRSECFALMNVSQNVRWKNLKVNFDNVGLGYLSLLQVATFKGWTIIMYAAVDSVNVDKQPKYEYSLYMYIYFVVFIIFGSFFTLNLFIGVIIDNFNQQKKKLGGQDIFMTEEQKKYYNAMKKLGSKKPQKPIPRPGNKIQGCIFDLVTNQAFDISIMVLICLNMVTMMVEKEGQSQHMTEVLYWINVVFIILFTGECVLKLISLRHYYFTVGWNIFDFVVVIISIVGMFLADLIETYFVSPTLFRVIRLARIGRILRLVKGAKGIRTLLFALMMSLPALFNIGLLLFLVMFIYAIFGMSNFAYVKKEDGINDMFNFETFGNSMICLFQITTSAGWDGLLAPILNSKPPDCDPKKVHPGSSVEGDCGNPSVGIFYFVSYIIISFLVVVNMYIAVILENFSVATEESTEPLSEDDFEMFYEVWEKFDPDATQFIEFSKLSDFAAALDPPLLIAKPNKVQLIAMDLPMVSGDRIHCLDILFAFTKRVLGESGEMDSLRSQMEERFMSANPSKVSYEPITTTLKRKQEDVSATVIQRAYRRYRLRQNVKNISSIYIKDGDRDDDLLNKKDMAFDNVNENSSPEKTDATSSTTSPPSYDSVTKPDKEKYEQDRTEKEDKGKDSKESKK
Briefly: IonWorks Quattro automated patch-clamp, state-dependent inhibition of Nav1.7. Format: cell-based. The conditions noted are these: inactivated state block, double-pulse protocol, holding -100 mV, read-out: potency for the Nav 1.7 sodium ion channel (as measured by IonWorks). The procedure: (§1) Compounds were tested on human Nav1.7 and Nav1.5 channels stably expressed in HEK 293 cells. […] Cells were sealed on a planar substrate using the Population Patch Plate (PPC) technology. Electrical access was obtained using both nystatin and amphotericin. A double-pulse protocol was used for the determination of IC50 values for inactivated state block. Nav1.7 and Nav1.5 expressing cells were voltage clamped at −100 mV and −110 mV, respectively. A depolarizing prepulse to −10 mV (Nav1.7) or −30 mV (Nav1.5) for 1000 ms followed by a 10 ms repolarization to −100 mV (Nav1.7) or −110 mV (Nav1.5) was given to generate fractional channel inactivation of ˜50%, followed by a 10 ms test pulse to −10 mV (Nav1.7) or −30 mV (Nav1.5) to measure peak current in control conditions and after compound addition. The following recording solutions were used (mM). External: 150 NaCl, 2 CaCl2, 5 KCl, 1 Mg Cl2, 10 HEPES, 12 Dextrose; internal: 120 CsF, 30 CsCl, 10 EGTA, 5 HEPES, 5 NaF, 2 MgCl2.
(§2) For all electrophysiology experiments, offline analysis was used to determine percent inhibition as a function of drug concentration. IC50 values were determined by fitting to the Hill equation.
(§3) The various compounds in Examples 1 through 4 and Tables 1 through 3 exemplified above were assayed for activity and selectivity using the foregoing IonWorks® technique. The results are reported in the following paragraph in a format expressing the identification of the compound with reference Example and compound (e.g. Ex 1-1 is Example 1, compound 1) followed by the observed potency in nM and the ratio of Nav1.7 potency:Nav 1.5 potency as described here. […]
In the case of `NCC(O)CNCCCCNc1cc(F)c(S(=O)(=O)Nc2ncc(F)s2)cc1Cl` (single isomer, unassigned) [EX 2-17, 4-[(4-{[(2R or 2S)-3-amino-2-hydroxypropyl]amino}butyl)amino]-5-chloro-2-fluoro-N-(5-fluoro-1,3-thiazol-2-yl)benzenesulfonamide], the IC50 was 0.015 µM.

Turning to `NCC(O)CNCCCCNc1cc(F)c(S(=O)(=O)Nc2ncc(F)s2)cc1Cl` (single isomer, unassigned) [EX 2-18, 4-[(4-{[(2S or 2R)-3-amino-2-hydroxypropyl]amino}butyl)amino]-5-chloro-2-fluoro-N-(5-fluoro-1,3-thiazol-2-yl)benzenesulfonamide], the IC50 was determined as 0.016 µM. Still for that read-out and setting: the value for `NCC(O)CNCCCCNc1cc(F)c(S(=O)(=O)Nc2nccs2)cc1Cl` (single isomer, unassigned) [EX 2-29, 4-[(4-{[(2R or 2S)-3-amino-2-hydroxypropyl]amino}butyl)amino]-5-chloro-2-fluoro-N-1,3-thiazol-2-ylbenzenesulfonamide] was 0.018 µM; that for `NCC(O)CNCCCCNc1cc(F)c(S(=O)(=O)Nc2nccs2)cc1Cl` (single isomer, unassigned) [EX 2-30, 4-[(4-{[(2S or 2R)-3-amino-2-hydroxypropyl]amino}butyl)amino]-5-chloro-2-fluoro-N-1,3-thiazol-2-ylbenzenesulfonamide] was 0.017 µM; that for `NC[C@H](O)CNCCCCNc1cc(F)c(S(=O)(=O)Nc2ncns2)cc1Cl` [EX 1-1, 4-[(4-{[(2S)-3-amino-2-hydroxypropyl]amino}butyl)amino]-5-chloro-2-fluoro-N-1,2,4-thiadiazol-5-ylbenzenesulfonamide] was 0.05 µM.

On to `NCC1(O)CN(CCCCNc2cc(F)c(S(=O)(=O)Nc3ncc(F)s3)cc2Cl)C1` [EX 1-2, 4-({4-[3-(aminomethyl)-3-hydroxyazetidin-1-yl]butyl}amino)-5-chloro-2-fluoro-N-(5-fluoro-1,3-thiazol-2-yl)benzenesulfonamide], for which the IC50 amounted to 0.02 µM. Same read-out and setting: the value for `Cc1cc(S(=O)(=O)Nc2ncc(F)s2)c(F)cc1NCCCCNCC1(O)CNC1` [EX 1-4, 2-fluoro-N-(5-fluoro-1,3-thiazol-2-yl)-4-[(4-{[(3-hydroxyazetidin-3-yl)methyl]amino}butyl)amino]-5-methylbenzenesulfonamide] was 0.039 µM; that for `O=S(=O)(Nc1ncns1)c1cc(Br)c(NCCCCNCC2(O)CNC2)cc1F` [EX 1-5, 5-bromo-2-fluoro-4-[(4-{[(3-hydroxyazetidin-3-yl)methyl]amino}butyl)amino]-N-1,2,4-thiadiazol-5-ylbenzenesulfonamide] was 0.019 µM. With `NC[C@@H](O)CNCCCCNc1cc(F)c(S(=O)(=O)Nc2ncns2)cc1Cl` [EX 1-6, 4-[(4-{[(2R)-3-amino-2-hydroxypropyl]-amino}butyl)amino]-5-chloro-2-fluoro-N-1,2,4-thiadiazol-5-yl-benzenesulfonamide], the IC50 came out at 0.015 µM.

Turning to `NC[C@H](O)CNCCCCNc1cc(F)c(S(=O)(=O)Nc2ncns2)cc1Br` [EX 1-7, 4-[(4-{[(2S)-3-amino-2-hydroxypropyl]-amino}butyl)amino]-5-bromo-2-fluoro-N-1,2,4-thiadiazol-5-yl-benzenesulfonamide], the IC50 came to 0.007 µM.

On to `NC[C@@H](O)CNCCCCNc1cc(F)c(S(=O)(=O)Nc2ncns2)cc1Br` [EX 1-8, 4-[(4-{[(2R)-3-amino-2-hydroxypropyl]-amino}-butyl)amino]-5-bromo-2-fluoro-N-1,2,4-thiadiazol-5-yl-benzenesulfonamide], for which the IC50 stood at 0.017 µM. Regarding `Cc1csc(NS(=O)(=O)c2cc(Cl)c(NCCCCNCC3(O)CNC3)cc2F)n1` [EX 1-9, 5-chloro-2-fluoro-4-[(4-{[(3-hydroxyazetidin-3-yl)methyl]amino}butyl)amino]-N-(4-methyl-1,3-thiazol-2-yl)-benzenesulfonamide], the IC50 is 0.055 µM. Consider `O=S(=O)(Nc1ncns1)c1cc(Cl)c(NCCCCN[C@@H]2CNC[C@H]2O)cc1F` [EX 2-2, 5-chloro-2-fluoro-4-[(4-{[(3R,4R)-4-hydroxypyrrolidin-3-yl]amino}butyl)amino]-N-1,2,4-thiadiazol-5-ylbenzenesulfonamide], for which the IC50 was 0.023 µM. The same measure, in the same setting: the value for `O=S(=O)(Nc1ncc(F)s1)c1cc(Cl)c(NCCCCN[C@@H]2CNC[C@H]2O)cc1F` [EX 2-20, 5-chloro-2-fluoro-N-(5-fluoro-1,3-thiazol-2-yl)-4-[(4-{[(3R,4R)-4-hydroxypyrrolidin-3-yl]amino}butyl)amino] benzenesulfonamide] was 0.04 µM. On the same count and under the same terms, the value for `O=S(=O)(Nc1ncc(F)s1)c1cc(Cl)c(NCCCCNC[C@H]2C[C@@H](O)CN2)cc1F` [EX 2-23, 5-chloro-2-fluoro-N-(5-fluoro-1,3-thiazol-2-yl)-4-{[4-({[(2R,4R)-4-hydroxypyrrolidin-2-yl]methyl}amino)butyl]amino} benzenesulfonamide] was 0.023 µM; that for `O=S(=O)(Nc1ncc(F)s1)c1cc(Cl)c(NCCCCNC[C@H]2C[C@H](O)CN2)cc1F` [EX 2-24, 5-chloro-2-fluoro-N-(5-fluoro-1,3-thiazol-2-yl)-4-{[4-({[(2R,4S)-4-hydroxypyrrolidin-2-yl]methyl}amino)butyl]amino} benzenesulfonamide] was 0.03 µM; that for `O=S(=O)(Nc1ncc(F)s1)c1cc(Br)c(NCCCCNCC2(O)CNC2)cc1F` [EX 2-25, 5-bromo-2-fluoro-N-(5-fluoro-1,3-thiazol-2-yl)-4-[(4-{[(3-hydroxyazetidin-3-yl)methyl]amino}butyl)amino] benzenesulfonamide] was 0.015 µM.

For the molecule `O=S(=O)(Nc1nccs1)c1cc(Cl)c(NCCCCNCC2(O)CNC2)cc1F` [EX 2-28, 5-chloro-2-fluoro-4-[(4-{[(3-hydroxyazetidin-3-yl)methyl]amino}butyl)amino]-N-1,3-thiazol-2-ylbenzenesulfonamide], the IC50 was determined as 0.018 µM.

Take `O=S(=O)(Nc1nccs1)c1cc(Cl)c(NCCCCN[C@@H]2CNC[C@H]2O)cc1F` [EX 2-31, 5-chloro-2-fluoro-4-[(4-{[(3R,4R)-4-hydroxypyrrolidin-3-yl]amino}butyl)amino]-N-1,3-thiazol-2-ylbenzenesulfonamide]: the IC50 stood at 0.03 µM. Still for that read-out and setting: the value for `NCC[C@@H](CO)NCCCCNc1cc(F)c(S(=O)(=O)Nc2nccs2)cc1Cl` [EX 2-32, 4-[(4-{[(1S)-3-amino-1-(hydroxymethyl)propyl]amino}butyl)amino]-5-chloro-2-fluoro-N-1,3-thiazol-2-ylbenzenesulfonamide] was 0.019 µM; that for `NCC[C@@H](CO)NCCCCNc1cc(F)c(S(=O)(=O)Nc2ncc(F)s2)cc1Cl` [EX 2-33, 4-[(4-{[(1S)-3-amino-1-(hydroxymethyl)propyl]amino}butyl)amino]-5-chloro-2-fluoro-N-(5-fluoro-1,3-thiazol-2-yl)benzenesulfonamide] was 0.02 µM; that for `NCC[C@@H](CO)NCCCCNc1cc(F)c(S(=O)(=O)Nc2ncns2)cc1Cl` [EX 2-34, 4-[(4-{[(1S)-3-amino-1-(hydroxymethyl)propyl]amino}butyl)amino]-5-chloro-2-fluoro-N-1,2,4-thiadiazol-5-ylbenzenesulfonamide] was 0.018 µM.

`NC[C@@H](CO)NCCCCNc1cc(F)c(S(=O)(=O)Nc2nccs2)cc1Cl` [EX 2-35, 4-[(4-{[(1S)-2-amino-1-(hydroxymethyl)ethyl]amino}butyl)amino]-5-chloro-2-fluoro-N-1,3-thiazol-2-ylbenzenesulfonamide]: the IC50 was determined as 0.015 µM.

With `O=S(=O)(Nc1nccs1)c1cc(Cl)c(NCCCCN[C@H]2CNC[C@@H]2O)cc1F` [EX 2-38], the IC50 is 0.04 µM. `NC[C@H](CO)NCCCCNc1cc(F)c(S(=O)(=O)Nc2ncc(F)s2)cc1Cl` [EX 2-40, 4-[(4-{[(1R)-2-amino-1-(hydroxymethyl)ethyl]amino}butyl)amino]-5-chloro-2-fluoro-N-(5-fluoro-1,3-thiazol-2-yl)benzenesulfonamide]: the IC50 is 0.05 µM.

Consider `O=S(=O)(Nc1ncns1)c1cc(Br)c(NCCCCN[C@H]2CNC[C@@H]2O)cc1F` [EX 2-43, 5-bromo-2-fluoro-4-((4-(((3S,4S)-4-hydroxypyrrolidin-3-yl)amino)butyl)amino)-N-(1,2,4-thiadiazol-5-yl)benzenesulfonamide], for which the IC50 was found to be 0.015 µM.

The next test has as its target T2, human Nav1.5 channels stably expressed in HEK 293 cells (Homo sapiens, UniProt Q14524).
T2 construct: expressed in transfected cells
Briefly: IonWorks Quattro automated patch-clamp, Nav1.5 (selectivity ratio versus Nav1.7). Format: cell-based. The conditions noted are these: selectivity for Nav1.7 over Nav1.5, inactivated state block. The procedure: as §1, §2, §3
In the case of `NCC(O)CNCCCCNc1cc(F)c(S(=O)(=O)Nc2ncc(F)s2)cc1Cl` (single isomer, unassigned) [EX 2-18, 4-[(4-{[(2S or 2R)-3-amino-2-hydroxypropyl]amino}butyl)amino]-5-chloro-2-fluoro-N-(5-fluoro-1,3-thiazol-2-yl)benzenesulfonamide], the “ratio of Nav1.7 potency:Nav 1.5 potency” value is reported as at least 1000. The same measure, in the same setting: the value for `NC[C@H](O)CNCCCCNc1cc(F)c(S(=O)(=O)Nc2ncns2)cc1Cl` [EX 1-1, 4-[(4-{[(2S)-3-amino-2-hydroxypropyl]amino}butyl)amino]-5-chloro-2-fluoro-N-1,2,4-thiadiazol-5-ylbenzenesulfonamide] was at least 660. Still for that read-out and setting: the value for `Cc1cc(S(=O)(=O)Nc2ncc(F)s2)c(F)cc1NCCCCNCC1(O)CNC1` [EX 1-4, 2-fluoro-N-(5-fluoro-1,3-thiazol-2-yl)-4-[(4-{[(3-hydroxyazetidin-3-yl)methyl]amino}butyl)amino]-5-methylbenzenesulfonamide] was at least 846; that for `NC[C@H](O)CNCCCCNc1cc(F)c(S(=O)(=O)Nc2ncns2)cc1Br` [EX 1-7, 4-[(4-{[(2S)-3-amino-2-hydroxypropyl]-amino}butyl)amino]-5-bromo-2-fluoro-N-1,2,4-thiadiazol-5-yl-benzenesulfonamide] was at least 4714.

`Cc1csc(NS(=O)(=O)c2cc(Cl)c(NCCCCNCC3(O)CNC3)cc2F)n1` [EX 1-9, 5-chloro-2-fluoro-4-[(4-{[(3-hydroxyazetidin-3-yl)methyl]amino}butyl)amino]-N-(4-methyl-1,3-thiazol-2-yl)-benzenesulfonamide]: the “ratio of Nav1.7 potency:Nav 1.5 potency” value is at least 600.
